ChEMBL document CHEMBL1127549, “Synthesis and delta-opioid receptor antagonist activity of a naltrindole analogue with a regioisomeric indole moiety” (J Med Chem, 1994)

Experiments:
[1] = target: Delta-type opioid receptor (Mus musculus, UniProt P32300); assay: Antagonist activity against delta-opioid receptor in mouse vas deferens in the presence of DADLE; format: functional, tissue-based
[2] = target: T1, Kappa-type opioid receptor (Cavia porcellus, UniProt P41144); assay: Antagonist activity against kappa-opioid receptor in guinea pig ileum in the presence of ethylketazocine; format: functional, tissue-based
[3] = target: T2, Mu-type opioid receptor (Cavia porcellus, UniProt P97266); assay: Antagonist activity against mu-opioid receptor in guinea pig ileum in the presence of morphine; format: functional, tissue-based
[4] = target: T2, Mu-type opioid receptor; assay: Binding affinity against mu-opioid receptor in guinea pig brain membranes; format: cell membranes, Membrane
[5] = target: T1, Kappa-type opioid receptor; assay: Binding affinity against kappa-opioid receptor in guinea pig brain membranes; format: cell membranes, Membrane

Delta-type opioid receptor, sequence (P32300 whole entry): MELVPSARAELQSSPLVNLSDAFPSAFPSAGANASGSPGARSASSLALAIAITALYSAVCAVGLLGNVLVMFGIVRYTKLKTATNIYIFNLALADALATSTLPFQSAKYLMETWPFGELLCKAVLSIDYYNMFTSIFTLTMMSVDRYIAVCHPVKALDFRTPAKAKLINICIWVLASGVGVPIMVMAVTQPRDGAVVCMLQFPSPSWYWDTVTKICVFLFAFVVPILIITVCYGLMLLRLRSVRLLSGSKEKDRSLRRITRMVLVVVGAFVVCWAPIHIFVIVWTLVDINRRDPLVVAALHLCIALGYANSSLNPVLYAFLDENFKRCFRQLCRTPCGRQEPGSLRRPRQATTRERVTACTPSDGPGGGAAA
T2 sequence (P97266 whole entry): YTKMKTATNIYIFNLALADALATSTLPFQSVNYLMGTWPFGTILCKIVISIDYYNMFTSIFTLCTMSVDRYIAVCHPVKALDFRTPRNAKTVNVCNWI
T1 sequence (P41144 whole entry): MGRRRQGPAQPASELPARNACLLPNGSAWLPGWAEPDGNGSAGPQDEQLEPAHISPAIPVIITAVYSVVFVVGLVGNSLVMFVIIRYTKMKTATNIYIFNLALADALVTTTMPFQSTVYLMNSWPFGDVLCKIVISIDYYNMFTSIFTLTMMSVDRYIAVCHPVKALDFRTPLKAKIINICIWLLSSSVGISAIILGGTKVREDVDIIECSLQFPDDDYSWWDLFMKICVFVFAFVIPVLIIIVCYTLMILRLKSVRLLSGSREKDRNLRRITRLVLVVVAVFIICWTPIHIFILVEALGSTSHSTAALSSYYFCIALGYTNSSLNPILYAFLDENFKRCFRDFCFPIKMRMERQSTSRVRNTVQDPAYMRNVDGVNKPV

| SMILES | IC50 [1] | IC50 [2] | IC50 [3] | Ki [4] | Ki [5] |
| --- | --- | --- | --- | --- | --- |
| CN1CC[C@]23c4c5ccc(O)c4O[C@H]2Cc2c([nH]c4ccccc24)[C@H]3[C@H]1C5 | 1000 nM | 990 nM | 920 nM | – | – |
| Oc1ccc2c3c1O[C@H]1Cc4c([nH]c5ccccc45)[C@H]4[C@@H](C2)N(CC2CC2)CC[C@]314 | 8200 nM | – | – | 4.9 nM | 33 nM |
| Oc1ccc2c3c1O[C@H]1c4[nH]c5ccccc5c4C[C@@]4(O)[C@@H](C2)N(CC2CC2)CC[C@]314 [NALTRINDOLE] | 459000 nM | 2000 nM | 11200 nM | – | – |
